Measurements from patent US9980943B2, “Methods of treating muscular dystrophy” (BOARD OF REGENTS OF THE NEVADA SYSTEM OF HIGHER EDUCATION, …, priority 2013, dated 2018).

Experiments:
Format in all cases: cell-based, mouse
[1] = system: β-galactosidase in CMV-LacZ C2C12 myotubes; assay: CMV-LacZ secondary screen in C2C12 myotubes (β-Gal stabilizing assay); conditions: C2C12 CMV-LacZ myotubes, fold relative to DMSO
Method in brief: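 A secondary screen identifies compounds that stabilize β-gal independently of the native promoter, using CMV-LacZ C2C12 cells. Curves span 0.5–40 μM at six levels, in duplicate.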

[2] = system: α7 integrin (LacZ reporter in α7βgal+/− myoblasts); assay: Myoblast α7+/LacZ integrin FDG assay (Burkin assay in myoblasts, 96-well); conditions: α7+/LacZ myoblasts, 96-well
[3] = system: β-galactosidase in CMV-LacZ C2C12 myoblasts; assay: CMV-LacZ secondary screen in C2C12 myoblasts (β-Gal stabilizing assay); conditions: CMV-LacZ C2C12 myoblasts
Method in brief: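 β-gal stabilization was measured in C2C12 myoblasts or myotubes stably transfected with a CMV-driven LacZ construct, using the FDG β-gal assay. Compounds were tested in dose-response at 0.5, 1, 5, 10, 20 and 40 μM, with two replicates per point.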

[4] = system: α7 integrin (LacZ reporter in α7+/LacZ myotubes); assay: Myotube α7 integrin FDG assay (Burkin assay in myotubes, 96-well); conditions: myotubes

SMILES: O=C(NCCc1ccc(Cl)cc1)C1CCCO1 (stereo not drawn) [MLS001198271-01]
- CMV-LACZ in Myotubes, signal relative to DMSO ([1]; 0.5 uM): 0.9933
- CMV-LACZ in Myotubes, signal relative to DMSO ([1]; 1 uM): 1.0686
- CMV-LACZ in Myotubes, signal relative to DMSO ([1]; 5 uM): 0.9907
- CMV-LACZ in Myotubes, signal relative to DMSO ([1]; 10 uM): 0.9957
- CMV-LACZ in Myotubes, signal relative to DMSO ([1]; 20 uM): 1.1053
- CMV-LACZ in Myotubes, signal relative to DMSO ([1]; 40 uM): 1.0053
- Burkin Assay in Myoblasts, signal relative to DMSO ([2]; 0.5 uM): 1.034
- Burkin Assay in Myoblasts, signal relative to DMSO ([2]; 1 uM): 1
- Burkin Assay in Myoblasts, signal relative to DMSO ([2]; 5 uM): 1.292
- Burkin Assay in Myoblasts, signal relative to DMSO ([2]; 10 uM): 1.034
- Burkin Assay in Myoblasts, signal relative to DMSO ([2]; 20 uM): 1.088
- Burkin Assay in Myoblasts, signal relative to DMSO ([2]; 40 uM): 1.0038
- CMV-LACZ in Myoblasts (β-galactosidase activity relative to DMSO) ([3]; 0.5 uM): 1.0204
- CMV-LACZ in Myoblasts (β-galactosidase activity relative to DMSO) ([3]; 1 uM): 1.0883
- CMV-LACZ in Myoblasts (β-galactosidase activity relative to DMSO) ([3]; 5 uM): 1.2105
- CMV-LACZ in Myoblasts (β-galactosidase activity relative to DMSO) ([3]; 10 uM): 0.8516
- CMV-LACZ in Myoblasts (β-galactosidase activity relative to DMSO) ([3]; 20 uM): 0.9944
- CMV-LACZ in Myoblasts (β-galactosidase activity relative to DMSO) ([3]; 40 uM): 1.2089
- Burkin Assay in Myotubes, α7 integrin LacZ reporter signal relative to DMSO ([4]; 0.5 uM): 1.0083
- Burkin Assay in Myotubes, α7 integrin LacZ reporter signal relative to DMSO ([4]; 1 uM): 0.9334
- Burkin Assay in Myotubes, α7 integrin LacZ reporter signal relative to DMSO ([4]; 5 uM): 1.113
- Burkin Assay in Myotubes, α7 integrin LacZ reporter signal relative to DMSO ([4]; 10 uM): 0.9856
- Burkin Assay in Myotubes, α7 integrin LacZ reporter signal relative to DMSO ([4]; 20 uM): 0.9056
- Burkin Assay in Myotubes, α7 integrin LacZ reporter signal relative to DMSO ([4]; 40 uM): 0.8217

SMILES: Cc1[nH]c(=O)[nH]c(=O)c1S(=O)(=O)Nc1ccc(F)cc1Cl [MLS001200149-01]
- CMV-LACZ in Myotubes, signal relative to DMSO ([1]; 0.5 uM): 0.8378
- CMV-LACZ in Myotubes, signal relative to DMSO ([1]; 1 uM): 0.9933
- CMV-LACZ in Myotubes, signal relative to DMSO ([1]; 5 uM): 0.9974
- CMV-LACZ in Myotubes, signal relative to DMSO ([1]; 10 uM): 0.8176
- CMV-LACZ in Myotubes, signal relative to DMSO ([1]; 20 uM): 0.8318
- CMV-LACZ in Myotubes, signal relative to DMSO ([1]; 40 uM): 0.9424
- Burkin Assay in Myoblasts, signal relative to DMSO ([2]; 0.5 uM): 1.039
- Burkin Assay in Myoblasts, signal relative to DMSO ([2]; 1 uM): 1.156
- Burkin Assay in Myoblasts, signal relative to DMSO ([2]; 5 uM): 1.0782
- Burkin Assay in Myoblasts, signal relative to DMSO ([2]; 10 uM): 0.998
- Burkin Assay in Myoblasts, signal relative to DMSO ([2]; 20 uM): 1.021
- Burkin Assay in Myoblasts, signal relative to DMSO ([2]; 40 uM): 0.9876
- CMV-LACZ in Myoblasts (β-galactosidase activity relative to DMSO) ([3]; 0.5 uM): 1.1234
- CMV-LACZ in Myoblasts (β-galactosidase activity relative to DMSO) ([3]; 1 uM): 0.9203
- CMV-LACZ in Myoblasts (β-galactosidase activity relative to DMSO) ([3]; 5 uM): 0.9489
- CMV-LACZ in Myoblasts (β-galactosidase activity relative to DMSO) ([3]; 10 uM): 1.0523
- CMV-LACZ in Myoblasts (β-galactosidase activity relative to DMSO) ([3]; 20 uM): 0.9363
- CMV-LACZ in Myoblasts (β-galactosidase activity relative to DMSO) ([3]; 40 uM): 1.1552
- Burkin Assay in Myotubes, α7 integrin LacZ reporter signal relative to DMSO ([4]; 0.5 uM): 1.26
- Burkin Assay in Myotubes, α7 integrin LacZ reporter signal relative to DMSO ([4]; 1 uM): 1.072
- Burkin Assay in Myotubes, α7 integrin LacZ reporter signal relative to DMSO ([4]; 5 uM): 1.069
- Burkin Assay in Myotubes, α7 integrin LacZ reporter signal relative to DMSO ([4]; 10 uM): 1.094
- Burkin Assay in Myotubes, α7 integrin LacZ reporter signal relative to DMSO ([4]; 20 uM): 0.9286
- Burkin Assay in Myotubes, α7 integrin LacZ reporter signal relative to DMSO ([4]; 40 uM): 0.8363

SMILES: CC(=O)Nc1ccc(NC(=O)c2cc(=O)c3cc(C)cc(C)c3o2)cc1 [MLS001200396-01]
- CMV-LACZ in Myotubes, signal relative to DMSO ([1]; 0.5 uM): 0.9137
- CMV-LACZ in Myotubes, signal relative to DMSO ([1]; 1 uM): 0.8442
- CMV-LACZ in Myotubes, signal relative to DMSO ([1]; 5 uM): 0.8987
- CMV-LACZ in Myotubes, signal relative to DMSO ([1]; 10 uM): 0.7738
- CMV-LACZ in Myotubes, signal relative to DMSO ([1]; 20 uM): 0.9644
- CMV-LACZ in Myotubes, signal relative to DMSO ([1]; 40 uM): 0.9733
- Burkin Assay in Myoblasts, signal relative to DMSO ([2]; 0.5 uM): 0.8827
- Burkin Assay in Myoblasts, signal relative to DMSO ([2]; 1 uM): 0.9245
- Burkin Assay in Myoblasts, signal relative to DMSO ([2]; 5 uM): 0.5378
- Burkin Assay in Myoblasts, signal relative to DMSO ([2]; 10 uM): 1.1321
- Burkin Assay in Myoblasts, signal relative to DMSO ([2]; 20 uM): 0.4827
- Burkin Assay in Myoblasts, signal relative to DMSO ([2]; 40 uM): 0.4794
- CMV-LACZ in Myoblasts (β-galactosidase activity relative to DMSO) ([3]; 0.5 uM): 1.0489
- CMV-LACZ in Myoblasts (β-galactosidase activity relative to DMSO) ([3]; 1 uM): 0.9157
- CMV-LACZ in Myoblasts (β-galactosidase activity relative to DMSO) ([3]; 5 uM): 1.0212
- CMV-LACZ in Myoblasts (β-galactosidase activity relative to DMSO) ([3]; 10 uM): 1.2107
- CMV-LACZ in Myoblasts (β-galactosidase activity relative to DMSO) ([3]; 20 uM): 0.7252
- CMV-LACZ in Myoblasts (β-galactosidase activity relative to DMSO) ([3]; 40 uM): 0.9011
- Burkin Assay in Myotubes, α7 integrin LacZ reporter signal relative to DMSO ([4]; 0.5 uM): 0.9301
- Burkin Assay in Myotubes, α7 integrin LacZ reporter signal relative to DMSO ([4]; 1 uM): 0.9487
- Burkin Assay in Myotubes, α7 integrin LacZ reporter signal relative to DMSO ([4]; 5 uM): 0.9829
- Burkin Assay in Myotubes, α7 integrin LacZ reporter signal relative to DMSO ([4]; 10 uM): 1.264
- Burkin Assay in Myotubes, α7 integrin LacZ reporter signal relative to DMSO ([4]; 20 uM): 0.6408
- Burkin Assay in Myotubes, α7 integrin LacZ reporter signal relative to DMSO ([4]; 40 uM): 0.7114
